Reference: US9296728B2, “Therapeutic compounds” (Regents of the University of Minnesota, priority 2012, dated 2016)
Read-outs that look alike come from different tables or passages of the source.

Assay: Pharmacokinetic study of Compound 20 in ICR mice
Type: in vivo
Conditions: male, mouse, plasma; for concentration at 0.083 h / concentration at 0.25 h / concentration at 0.5 h / concentration at 1 h / concentration at 2 h / concentration at 4 h / concentration at 6 h / concentration at 8 h / concentration at 24 h / concentration at 0 h: ICR, 100 mg/kg; for concentration at 6 h / concentration at 24 h: n = 3; for AUC(0-inf) / AUC(0-t) / Cmax / Tmax / Vd/F: mean; for Vd/F: read-out: Vz/F
Method: 60 male ICR mice were split into two groups of 30. In each group the mice were prescribed Compound 20 at a dosage of 100 mg/kg. This dose was administered orally in group 1 and intraperitoneally in group 2. Each group of 30 mice was subdivided into groups of 3 mice. Blood samples were taken through orbital sinus method at 0, 0.083, 0.25, 0.5, 1, 2, 4, 6, 8 and 24 hours after administering Compound 20 and taken into tubes with anticoagulant at room temperature at least 30 minutes prior to centrifugation, then centrifuged at 10000 rpm for 5 minutes at 4° C. to separate plasma from the blood samples. Following centrifugation, the resulting serum was transferred to clean tubes and stored frozen at −80° C. Immediately following the blood samples, the brain tissue samples of mice were removed and stored frozen at −80° C.
A 20% brain homogenate was prepared by weighing brain tissue sample and adding, corresponding volume of saline into the manual homogenator. The dilution factor was 5 (w/v=1 g: 4 mL). The brain tissue sample was grinded slowly and repeatedly until it has become homogenous.
Plasma and Brain samples were centrifuged at 15777×g for 5 minutes, and 180 ul of supernatant was placed in a 96-well assay plate. To each well, 200 ul of a 50% ACN/H2O was added and the plates were shake-mixed for 3 minutes. 5 ul aliquots of each well were then analyzed using LC-MS/MS.
The standard non-compartmental model was used to generate the pharmacokinetic parameters: Cmax, Tmax, t1/2, AUC0->last, AUC0->inf, CL/F, and Vz/F. The maximum plasma concentration, Cmax, and its corresponding time, Tmax were directly recorded. Elimination rate constant kel was determined by linear regression of the terminal points of the semi-log plot of concentration against time. Elimination half-life was calculated by the formula; t12=0.693/kel. The Area Under the curve value from time 0 to 24 hours was defined as AUCt->last and calculated using the linear trapezoidal rule.

[1] = ip, 100 mg/kg i.p., n = 3, read-out: Plasma Concentration, Mean
[2] = ip, 100 mg/kg i.p., read-out: Plasma Concentration, individual animals (1#, 2#, 3#)
[3] = po, 100 mg/kg p.o., n = 3, read-out: Plasma Concentration, Mean
[4] = po, 100 mg/kg p.o., read-out: Plasma Concentration, individual animals (1#, 2#, 3#)

For `COc1cc(N(c2ccccc2)c2ccccc2)ccc1/C=C(\C#N)C(=O)O` [Compound 20], the concentration at 0.083 h [1] was 30800 ng/mL, the concentration at 0.25 h [1] was 55900 ng/mL and the concentration at 0.5 h [1] was 37300 ng/mL. For the same molecule, the concentration at 0.5 h [2] was 51400 ng/mL, the concentration at 1 h [1] was 34800 ng/mL and the concentration at 1 h [2] was 31800 ng/mL. It also gave a concentration at 2 h [1] of 35200 ng/mL, a concentration at 2 h [2] of 38800 ng/mL and a concentration at 4 h [1] of 25100 ng/mL. The concentration at 4 h [2] was 25000 ng/mL, the concentration at 6 h (ip, 100 mg/kg i.p.) was 7850 ng/mL and the concentration at 8 h [1] was 2840 ng/mL. The concentration at 8 h [2] was 2760 ng/mL, the concentration at 24 h (ip, 100 mg/kg i.p.) was 121 ng/mL and the concentration at 0 h [3] was 0 ng/mL. For the same molecule, the concentration at 0 h [4] was 0 ng/mL, the concentration at 0.083 h [3] was 3430 ng/mL and the concentration at 0.083 h [4] was 2210 ng/mL. The concentration at 0.25 h [3] was 9130 ng/mL, the concentration at 0.25 h [4] was 9690 ng/mL and the concentration at 0.5 h [3] was 15500 ng/mL. The concentration at 1 h [3] was 7050 ng/mL, the concentration at 2 h [3] was 3150 ng/mL and the concentration at 4 h [3] was 3090 ng/mL. For the same molecule, the concentration at 6 h (po, 100 mg/kg p.o.) was 2470 ng/mL, the concentration at 8 h [3] was 4010 ng/mL and the concentration at 24 h (po, 100 mg/kg p.o.) was 47.7 ng/mL. For the same molecule, the AUC(0-inf) (ip, 100 mg/kg i.p.) was 201 µg·h/mL, the AUC(0-t) (ip, 100 mg/kg i.p.) was 201 µg·h/mL and the Cmax (ip, 100 mg/kg i.p.) was 61300 ng/mL. For the same molecule, the Tmax (ip, 100 mg/kg i.p.) was 30 min, the Vd/F (ip, 100 mg/kg i.p.) was 2.35 L/kg and the AUC(0-inf) (po, 100 mg/kg p.o.) was 66 µg·h/mL. It also gave an AUC(0-t) (po, 100 mg/kg p.o.) of 65.7 µg·h/mL, a Cmax (po, 100 mg/kg p.o.) of 17500 ng/mL and a Tmax (po, 100 mg/kg p.o.) of 40 min. It also gave a Vd/F (po, 100 mg/kg p.o.) of 6.55 L/kg.
